Publication PMC12203862, “BroadAMP-GPT: AI-Driven generation of broad-spectrum antimicrobial peptides for combating multidrug-resistant ESKAPE pathogens” (Gut Microbes, 2025)
Values after ≈ are worked out from the molar mass of the structure shown. Residues, ends and D or L forms follow the SMILES beside them.

Tests used:
[1] = system: four Gram-positive and five Gram-negative bacteria, including ESKAPE pathogens; assay type: cell-based
Description: (§1) Bacterial strains and growth conditions: All Gram-negative and Gram-positive bacterial strains (Supplementary Table S8) were cultured in Luria-Bertani (LB) or trypticase soy broth (TSB) agar plates, respectively, and incubated overnight at 37 °C unless specifically indicated. A single colony of the tested bacterial strains was inoculated into medium broth with shaking at 220 rpm for further experiments.
(§2) Minimal inhibitory concentrations: Antimicrobial susceptibility testing was performed by broth microdilution method for AMPs against Gram-positive and Gram-negative pathogens above mentioned, following the methods of document CLSI M100-ED34.[43] The MICs were defined as the lowest concentrations that inhibit visible growth of the tested bacteria. E. coli ATCC 25,922 and S. aureus ATCC 29,213 were served as quality controls.

[2] = system: S. aureus clinical isolates (n = 40); assay type: cell-based
Description: as §1, §2

[3] = MIC in the presence of 50% rabbit plasma; S. aureus, E. faecalis, S. suis, S. enteritis, K. pneumoniae
mouse red blood cells = assay: Haemolysis assay; assay type: cell-based
Description: Red blood cells (RBCs) from Kunming mice were used to evaluate the hemolytic toxicity of the selected AMPs. Fresh red blood cells were collected from mice and washed until the supernatant was completely cleared. Added 19-fold volume of PBS to prepare 2% RBC suspension. […] Afterward, the mixture was centrifuged at 1500 rpm for 10 min. Then transferred 30 µL supernatant to 96-well plate containing 70 µL PBS. The absorbance of the sample was measured at 450 nm by a microplate reader. PBS and 2% Triton X-100 was used as negative and positive control, respectively. The experiment was performed in triplicate and the hemolysis activity was calculated by the formula hemolysis = [(Absorbancesample- AbsorbancePBS)/(AbsorbanceTriton x-100-AbsorbancePBS)]×100%.

S. suis P1/7 = assay: microbe, parasite or virus in culture
Summary of the method: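 Antimicrobial peptides were tested by broth microdilution following CLSI M100-ED34. Strains were grown overnight at 37 °C on LB (Gram-negative) or TSB (Gram-positive) agar, then in shaken broth. MIC is the lowest concentration preventing visible growth.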

chymotrypsin = details: 1 h, then MIC
Caco-2 = assay: Cytotoxicity, CCK-8; assay type: cell-based, human
Description: (§3) The cytotoxicity of selected AMPs to human laryngeal carcinoma epithelial cell (HEp-2) and colorectal adenocarcinoma cell (Caco-2) lines was evaluated using the CCK-8 method as previously described.[55] The cells were cultured in high-glucose dulbecco’s modified eagle medium (DMEM) supplemented with 10% fetal bovine serum (FBS) and 1% penicillin-streptomycin. Cells were inoculated in 96-well sterile microtiter plate at 5000 cells/100 μL. After cultured (37℃, 5%CO2) for 24 h, cells were treated with AMPs at concentrations ranging from 8 to 128 μg/mL for another 48 h. Afterward, the culture medium was replaced by fresh DMEM medium containing 10% CCK-8 and incubated for 1 h. The absorbance of the solution was measured at 450 nm by a microplate reader. Cell viability was calculated as: % cell viability = [(Abssample - Absblank)/(Absnegative - Absblank)]×100%. Each experiment was carried out with three replicates.

HEp-2 = assay: Cytotoxicity, CCK-8; assay type: cell-based, human
Description: as §3

pepsin = pepsin 10 μg/mL, 37℃, 1 h, then MIC
Description: (§4) To understand stability of peptide under different pH conditions, AMP solutions were prepared at different pH values (pH = 2, 4, 6, 8, 10, and 12) and then incubated at room temperature for 1 h. For the temperature stability, AMP solutions were incubated at 20, 25, 40, 60, 80, and 100℃ for 1 h. For the protease stability, AMP solutions were incubated with pepsin, trypsin, and proteinase K at different concentration of 10 μg/mL at 37℃ for 1 h.[52],[53] After incubation, the MIC values peptides were determined using the MIC experimental protocol.

trypsin = trypsin 10 μg/mL, 37℃, 1 h, then MIC
Description: as §4

S. enteritis S1 = assay: organism not typed; assay type: cell-based
A. baumannii 7979 = assay: microbe, parasite or virus in culture; assay type: cell-based; details: 7979
S. suis SH0918 = assay: microbe, parasite or virus in culture; assay type: cell-based
Summary of the method: (§5)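 Broth microdilution MIC per CLSI M100-ED34; Gram-positive strains grown in TSB at 37 °C overnight. MIC taken as lowest concentration inhibiting visible growth. E. coli ATCC 25,922 and S. aureus ATCC 29,213 served as quality controls.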

P. aeruginosa PA14 = assay: microbe, parasite or virus in culture; assay type: cell-based; details: PA14
E. faecium MC38 = assay: microbe, parasite or virus in culture; assay type: cell-based; details: MC38
Summary of the method: as §5

S. aureus M92-1 = assay: microbe, parasite or virus in culture; assay type: cell-based; details: M92-1
Summary of the method: as §5

S. agalactiae DL03 = assay: microbe, parasite or virus in culture; assay type: cell-based; details: DL03
Summary of the method: as §5

E. faecium HFY01 = assay: microbe, parasite or virus in culture; assay type: cell-based; details: HFY01
Summary of the method: as §5

S. aureus YZSA-24 = assay: microbe, parasite or virus in culture; assay type: cell-based; details: YZSA-24
Summary of the method: as §5

K. pneumoniae 9-1 = assay: microbe, parasite or virus in culture; assay type: cell-based; details: 9-1
S. pyogenes DL02 = assay: microbe, parasite or virus in culture; assay type: cell-based; details: DL02
Summary of the method: as §5

P. aeruginosa PAO1 = assay: microbe, parasite or virus in culture; assay type: cell-based; details: PAO1
E. faecalis JH2-2 = assay: microbe, parasite or virus in culture; assay type: cell-based; details: JH2-2
Summary of the method: as §5

S. aureus YZSA-21 = assay: microbe, parasite or virus in culture; assay type: cell-based; details: YZSA-21
Summary of the method: as §5

E. faecalis SF23-1 = assay: microbe, parasite or virus in culture; assay type: cell-based; details: SF23-1
Summary of the method: as §5

S. aureus M147-2 = assay: microbe, parasite or virus in culture; assay type: cell-based; details: M147-2
Summary of the method: as §5

E. faecalis ES01 = assay: microbe, parasite or virus in culture; assay type: cell-based; details: ES01
Summary of the method: as §5

S. aureus YZSA-15 = assay: microbe, parasite or virus in culture; assay type: cell-based; details: YZSA-15
Summary of the method: as §5

E. coli ATCC 25922 = assay: microbe, parasite or virus in culture; assay type: cell-based; details: ATCC 25922
Summary of the method: as §5

E. faecium QF31 = assay: microbe, parasite or virus in culture; assay type: cell-based; details: QF31
Summary of the method: as §5

E. faecalis J2 = assay: microbe, parasite or virus in culture; assay type: cell-based; details: J2
Summary of the method: as §5

proteinase K = proteinase K (Parengyodontium album, UniProt P06873); assay: Protease stability by MIC change; assay type: in vitro ADME; details: proteinase K 10 μg/mL, 37℃, 1 h, then MIC
Sequence of proteinase K (P06873 106-384): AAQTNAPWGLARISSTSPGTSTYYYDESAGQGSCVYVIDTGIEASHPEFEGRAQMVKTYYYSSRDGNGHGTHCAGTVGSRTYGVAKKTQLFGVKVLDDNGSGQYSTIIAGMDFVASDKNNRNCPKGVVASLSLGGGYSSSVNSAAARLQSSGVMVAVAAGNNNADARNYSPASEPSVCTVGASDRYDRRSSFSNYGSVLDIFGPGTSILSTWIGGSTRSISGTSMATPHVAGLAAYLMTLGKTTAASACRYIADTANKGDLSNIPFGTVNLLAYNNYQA

S. aureus ATCC 29213 = assay: microbe, parasite or virus in culture; assay type: cell-based; details: ATCC 29213

Q: Which “MIC values, range” value [1] does the source give for `CC[C@H](C)[C@H](NC(=O)[C@H](C)NC(=O)[C@H](CCC(N)=O)NC(=O)[C@H](Cc1c[nH]c2ccccc12)NC(=O)[C@H](C)N)C(=O)N[C@@H](C)C(=O)N[C@@H](CCCNC(=N)N)C(=O)N[C@@H](CC(C)C)C(=O)N[C@H](C(=O)N[C@@H](CCCCN)C(=O)NCC(=O)N[C@@H](CCCNC(=N)N)C(=O)NCC(=O)N[C@@H](CCCNC(=N)N)C(=O)N[C@@H](CCCCN)C(=O)N[C@@H](CCCCN)C(=O)N[C@@H](Cc1ccc(O)cc1)C(=O)NCC(=O)N[C@@H](CCCNC(=N)N)C(=O)N[C@H](C(=O)N[C@H](C(=O)N[C@H](C(=O)N[C@H](C(=O)NCC(=O)O)[C@@H](C)CC)[C@@H](C)CC)[C@@H](C)CC)[C@@H](C)CC)[C@@H](C)CC` [AMP_S13] (H-AWQAIARLIKGRGRKKYGRIIIIG-OH) here?
A: 2 to 16 µg/mL

Q: And the “MICs, range over panel” value [1]?
A: 2 to 16 µg/mL

Q: What about the “MICs, range over clinical isolates” value [2] of the same compound?
A: 4 to 32 µg/mL

Q: And the “antimicrobial activity in plasma” value [3]?
A: remained effective

Q: What about the HC50/MIC (mouse red blood cells; MIC values against S. aureus ATCC 29213) of the same compound?
A: 116.08

Q: And the HC50 (mouse red blood cells; mouse red blood cells, 37℃, 1 h)?
A: 928.6 µg/mL

Q: And the MIC (S. suis P1/7)?
A: 4 µg/mL (≈ 1.46 µM)

Q: What about the “antimicrobial activity (MIC) after protease incubation” value (“antimicrobial activity (MIC)” below) (chymotrypsin) of the same compound?
A: maintained its activity

Q: And the CC50 (Caco-2; 48 h)?
A: 1011 µg/mL (≈ 369 µM)

Q: What about the CC50/MIC (Caco-2; Caco-2, MIC values against S. aureus ATCC 29213) of the same compound?
A: 126.38

Q: And the CC50 (HEp-2; 48 h)?
A: 353.3 µg/mL (≈ 129 µM)

Q: What about the CC50/MIC (HEp-2; HEp-2, MIC values against S. aureus ATCC 29213) of the same compound?
A: 44.16

Q: And the “antimicrobial activity (MIC)” value (pepsin)?
A: maintained its activity

Q: And the “antimicrobial activity (MIC)” value (trypsin)?
A: maintained its activity

Q: What about the MIC (S. enteritis S1) of the same compound?
A: 16 µg/mL (≈ 5.84 µM)

Q: And the MIC (A. baumannii 7979)?
A: 2 µg/mL (≈ 0.73 µM)

Q: What about the MIC (S. suis SH0918) of the same compound?
A: 4 µg/mL (≈ 1.46 µM)

Q: What about the MIC (P. aeruginosa PA14) of the same compound?
A: 8 µg/mL (≈ 2.92 µM)

Q: And the MIC (E. faecium MC38)?
A: 4 µg/mL (≈ 1.46 µM)

Q: What about the MIC (S. aureus M92-1) of the same compound?
A: 8 µg/mL (≈ 2.92 µM)

Q: What about the MIC (S. agalactiae DL03) of the same compound?
A: 4 µg/mL (≈ 1.46 µM)

Q: What about the MIC (E. faecium HFY01) of the same compound?
A: 4 µg/mL (≈ 1.46 µM)

Q: And the MIC (S. aureus YZSA-24)?
A: 16 µg/mL (≈ 5.84 µM)

Q: And the MIC (K. pneumoniae 9-1)?
A: 16 µg/mL (≈ 5.84 µM)

Q: And the MIC (S. pyogenes DL02)?
A: 4 µg/mL (≈ 1.46 µM)

Q: What about the MIC (P. aeruginosa PAO1) of the same compound?
A: 8 µg/mL (≈ 2.92 µM)

Q: What about the MIC (E. faecalis JH2-2) of the same compound?
A: 8 µg/mL (≈ 2.92 µM)

Q: And the MIC (S. aureus YZSA-21)?
A: 8 µg/mL (≈ 2.92 µM)

Q: And the MIC (E. faecalis SF23-1)?
A: 8 µg/mL (≈ 2.92 µM)

Q: And the MIC (S. aureus M147-2)?
A: 8 µg/mL (≈ 2.92 µM)

Q: What about the MIC (E. faecalis ES01) of the same compound?
A: 4 µg/mL (≈ 1.46 µM)

Q: What about the MIC (S. aureus YZSA-15) of the same compound?
A: 8 µg/mL (≈ 2.92 µM)

Q: And the MIC (E. coli ATCC 25922)?
A: 8 µg/mL (≈ 2.92 µM)

Q: And the MIC (E. faecium QF31)?
A: 4 µg/mL (≈ 1.46 µM)

Q: And the MIC (E. faecalis J2)?
A: 8 µg/mL (≈ 2.92 µM)

Q: What about the “antimicrobial activity (MIC)” value (proteinase K) of the same compound?
A: only a two-fold decrease in MIC

Q: What about the MIC (S. aureus ATCC 29213) of the same compound?
A: 8 µg/mL (≈ 2.92 µM)
